This is an account of results in ChEMBL document CHEMBL1201862, “PubChem BioAssay data set” (2004).

Among the test systems are CAKI-1; HCT-15; HT-29; Hs-578T; KM12; LOX IMVI; M14; MDA-MB-231; Malme-3M; NCI-H23; NCI-H460; NCI-H522; OVCAR-4; PC-3; RXF 393; SF-268; SK-MEL-2; SNB-19; SR; UO-31.
Holding throughout (experiment): inhibition of tumour cell growth, NCI panel, 48 h

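Tested at 5 concentrations; 48 h exposure; 96-well plates; endpoints linearly interpolated, else capped at highest concentration. At the GI50, growth is halved.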 The source made the active and inactive calls. No stated cut-off is given here; in the data, active = GI50 up to about 1.1 µM and inactive = higher.

Turning to `CCCCCCc1cc2cc(-c3cn4ccccc4n3)c(=O)oc2cc1O`, the GI50 in the test with CAKI-1 is 4.67 µM (inactive); with HCT-15, 5.66 µM; with HT-29, > 55.8 µM (inactive); with Hs-578T, 4.14 µM (inactive); in the test with KM12, 16.1 µM (inactive); with LOX IMVI it was 4.72 µM (inactive). Besides, the GI50 with M14 is 5.52 µM (inactive); with MDA-MB-231, 3.27 µM (inactive); with Malme-3M, 1.71 µM (inactive); with NCI-H23, 5.66 µM (inactive); in the test with NCI-H460, 15 µM (inactive); with NCI-H522, 5.37 µM (inactive). Also, the GI50 with OVCAR-4 was 4.66 µM (inactive); with PC-3, 18.7 µM (inactive); in the test on RXF 393, 4.14 µM (inactive); with SF-268, 2.32 µM (inactive); in the test with SK-MEL-2, 13.6 µM (inactive); with SNB-19 it was 13.2 µM (inactive). Moreover, the GI50 was 5.57 µM (inactive) with SR and 8.39 µM (inactive) in the test on UO-31.
Regarding `C=C(CN(C)C)C(=O)c1ccc(Oc2ccccc2)cc1`, the GI50 with CAKI-1 was 2.54 µM (inactive); in the test on HCT-15, 3.68 µM; with HT-29 it was 7.82 µM (inactive); with Hs-578T, 8.73 µM (inactive); in the test with KM12, 12.8 µM (inactive); in the test on LOX IMVI, 5.57 µM (inactive). Also, the GI50 in the test with M14 is 1.76 µM (inactive); in the test on MDA-MB-231, 5.81 µM (inactive); with Malme-3M, 3.85 µM (inactive); with NCI-H23 it was 7.71 µM (inactive); in the test on NCI-H460 it was 27.3 µM (inactive); with NCI-H522, 1.55 µM (inactive). Further, the GI50 is 6.19 µM (inactive) in the test with OVCAR-4; 3.98 µM (inactive) with PC-3; 2.4 µM (inactive) with RXF 393; 14 µM (inactive) with SF-268; 9.2 µM (inactive) with SK-MEL-2; 9.64 µM (inactive) in the test on SNB-19. For the same compound, the GI50 is 0.692 µM (active) in the test with SR and 3.53 µM (inactive) with UO-31.
For the compound `COc1cc(S(=O)(=O)Nc2nc(-c3ccc(/N=C/c4cccs4)cc3)cs2)ccc1Cl`, the GI50 is > 100 µM (inactive) in the test on CAKI-1; 36.1 µM with HCT-15; > 100 µM (inactive) with HT-29; > 100 µM (inactive) in the test on Hs-578T; 67.1 µM (inactive) with KM12; 31 µM (inactive) in the test on LOX IMVI. Further, the GI50 with M14 is > 100 µM (inactive); in the test with MDA-MB-231, 95.1 µM (inactive); in the test on Malme-3M, > 100 µM (inactive); in the test on NCI-H23, 47.1 µM (inactive); in the test on NCI-H460, > 100 µM (inactive); with NCI-H522, 28.4 µM (inactive). The GI50 in the test with OVCAR-4 was 38.9 µM (inactive); in the test with PC-3, 76.2 µM (inactive); in the test with RXF 393, 20.4 µM (inactive); with SF-268 it was 56.6 µM (inactive); in the test on SK-MEL-2, 39.5 µM (inactive); with SNB-19, > 100 µM (inactive). The values for the GI50 in the test with SR and in the test with UO-31 were 21.7 µM (inactive) and 58.6 µM (inactive), respectively.
Turning to `COC(=O)C1=C(OC(=O)/C=C/c2ccccc2)C(C(=O)OC)[C@@]2(O)[C@@H](C(=O)OC)[C@H](C)C[C@@H]1[C@@H]2C(=O)OC` (stereo not given in full), the GI50 is 15.7 µM (inactive) in the test on CAKI-1; 11.7 µM in the test on HCT-15; 24.7 µM (inactive) with HT-29; 14.7 µM (inactive) with Hs-578T; 27.9 µM (inactive) in the test with KM12; 22.1 µM (inactive) with LOX IMVI. Moreover, the GI50 in the test on M14 was 25.5 µM (inactive); in the test on MDA-MB-231, 14.8 µM (inactive); in the test on Malme-3M it was 15.8 µM (inactive); in the test on NCI-H23 it was 17.3 µM (inactive); with NCI-H460 it was 17 µM (inactive); in the test with NCI-H522, 5.58 µM (inactive). In addition, the GI50 is 18.2 µM (inactive) with OVCAR-4; 25.5 µM (inactive) in the test on PC-3; 4.05 µM (inactive) with RXF 393; 24.2 µM (inactive) in the test with SF-268; 24.9 µM (inactive) in the test on SK-MEL-2; 26.2 µM (inactive) in the test with SNB-19. For the same compound, the GI50 in the test on SR was > 100 µM (inactive); in the test with UO-31, 17 µM (inactive).
Take `O=C1CCc2cc3c(cc21)C(C(=O)O)CC3` (stereo not given): the GI50 was > 100 µM (inactive) with CAKI-1; > 100 µM in the test with HCT-15; > 100 µM (inactive) with HT-29; > 100 µM (inactive) in the test on Hs-578T; > 100 µM (inactive) in the test with KM12; > 100 µM (inactive) with LOX IMVI. The GI50 in the test on M14, in the test with MDA-MB-231, in the test on Malme-3M, in the test on NCI-H23, in the test with NCI-H460 and in the test with NCI-H522 was > 100 µM (inactive) each time. The GI50 was > 100 µM (inactive) with OVCAR-4; > 100 µM (inactive) in the test on PC-3; 30.8 µM (inactive) in the test with RXF 393; > 100 µM (inactive) in the test with SF-268; > 100 µM (inactive) in the test on SK-MEL-2; > 100 µM (inactive) in the test on SNB-19. The GI50 in the test on SR and in the test with UO-31 was > 100 µM (inactive) in each case.
Consider `CCCC(=O)Nc1cc(/C=C/C(=O)N2CC(CCl)c3c2cc(OC(C)=O)c2[nH]cc(C)c32)n(C)c1` (stereo not given), for which the GI50 in the test on CAKI-1 was 7.66e-05 µM (active); in the test with HCT-15 it was 0.000547 µM; in the test with HT-29, 5.49e-05 µM (active); in the test on Hs-578T it was 6.56e-05 µM (active); in the test on KM12 it was 8.73e-05 µM (active); in the test on LOX IMVI, < 2.5e-05 µM (active). The GI50 was 5.38e-05 µM (active) with M14; 6.44e-05 µM (active) with MDA-MB-231; 3.23e-05 µM (active) in the test on Malme-3M; < 2.5e-05 µM (active) in the test with NCI-H23; < 2.5e-05 µM (active) in the test on NCI-H460; < 2.5e-05 µM (active) in the test on NCI-H522. Besides, the GI50 in the test on OVCAR-4 was < 2.5e-05 µM (active); in the test on PC-3, 5.01e-05 µM (active); with RXF 393, < 2.5e-05 µM (active); in the test on SF-268, < 2.5e-05 µM (active); in the test with SK-MEL-2, 5.92e-05 µM (active); in the test on SNB-19, 0.00011 µM (active). The figures for the GI50 in the test with SR and in the test on UO-31 were < 2.5e-05 µM (active) and 6.84e-05 µM (active), respectively.
Turning to `[O-]c1c2cc(-[n+]3c(-c4ccccc4)cc(-c4ccccc4)cc3-c3ccccc3)cc1CO[C@@H](c1ccccc1)[C@H](c1ccccc1)OCc1cccc(n1)CO[C@@H](c1ccccc1)[C@H](c1ccccc1)OC2`, the GI50 is 0.367 µM (active) in the test on CAKI-1; 0.74 µM with HCT-15; 0.0318 µM (active) in the test on HT-29; 0.676 µM (active) in the test on Hs-578T; 0.0383 µM (active) in the test with KM12; 0.0498 µM (active) in the test on LOX IMVI. Moreover, the GI50 was 0.161 µM (active) with M14; 0.16 µM (active) in the test with MDA-MB-231; 0.0363 µM (active) in the test with Malme-3M; 0.0569 µM (active) in the test on NCI-H23; 0.056 µM (active) in the test with NCI-H460; 0.0353 µM (active) with NCI-H522. Further, the GI50 with OVCAR-4 is 0.09 µM (active); with PC-3 it was 0.0373 µM (active); in the test with RXF 393, 0.219 µM (active); with SF-268 it was 0.0689 µM (active); in the test with SK-MEL-2, 0.0569 µM (active); in the test with SNB-19 it was 0.0514 µM (active). The figures for the GI50 in the test on SR and in the test on UO-31 were 0.035 µM (active) and 0.625 µM (active), respectively.
For the compound `O=C(O)CNC(=O)CO/N=C1/C(=C2/C(=O)Nc3ccccc32)Nc2ccccc21`, the GI50 was 28.1 µM (inactive) in the test on CAKI-1; 51.8 µM in the test with HCT-15; > 100 µM (inactive) with HT-29; > 100 µM (inactive) in the test on Hs-578T; 4.9 µM (inactive) in the test with KM12; > 100 µM (inactive) in the test on LOX IMVI. Further, the GI50 in the test on M14, in the test with MDA-MB-231, in the test with Malme-3M, in the test on NCI-H23, with NCI-H460 and with NCI-H522 was > 100 µM (inactive) each time. Moreover, the GI50 with OVCAR-4 was > 100 µM (inactive); with PC-3, 60.8 µM (inactive); with RXF 393 it was 55.1 µM (inactive); with SF-268 it was > 100 µM (inactive); in the test with SK-MEL-2, > 100 µM (inactive); with SNB-19, 70.5 µM (inactive). In addition, the GI50 was 38.5 µM (inactive) in the test with SR and 26.5 µM (inactive) in the test on UO-31.
Take `CN(Cc1ccccc1)Cn1ccnc1`: the GI50 was > 100 µM (inactive) with CAKI-1; 59.4 µM in the test on HCT-15; 29 µM (inactive) in the test with HT-29; > 100 µM (inactive) with Hs-578T; > 100 µM (inactive) in the test with KM12; > 88.3 µM (inactive) in the test on LOX IMVI. Also, the GI50 with M14 is 20.5 µM (inactive); in the test with MDA-MB-231, > 56 µM (inactive); in the test with Malme-3M, 24.9 µM (inactive); with NCI-H23, > 85.5 µM (inactive); with NCI-H460, 40.3 µM (inactive); in the test with NCI-H522, 89.3 µM (inactive). The GI50 with OVCAR-4 was > 100 µM (inactive); in the test on PC-3, > 75.9 µM (inactive); with RXF 393, > 100 µM (inactive); in the test with SF-268, > 100 µM (inactive); in the test with SK-MEL-2, > 100 µM (inactive); in the test on SNB-19, > 100 µM (inactive). For the same compound, the GI50 is 26.2 µM (inactive) with SR and 54.7 µM (inactive) with UO-31.
As to `CC(=O)OCC1OC(O[C@@H]2c3c(O)c4c(c(O)c3C3=C(NN(c5ccc([N+](=O)[O-])cc5[N+](=O)[O-])[Se]3=O)[C@@]2(C)O)C(=O)c2ccccc2C4=O)C(OC(C)=O)C(OC(C)=O)C1OC(C)=O` (stereo not given in full), the GI50 is 0.274 µM (active) in the test on CAKI-1; 0.211 µM in the test with HCT-15; 0.239 µM (active) in the test with HT-29; 0.303 µM (active) in the test with Hs-578T; 0.338 µM (active) with KM12; 0.147 µM (active) in the test with LOX IMVI. Also, the GI50 in the test with M14 is 0.254 µM (active); in the test with MDA-MB-231 it was 0.346 µM (active); in the test on Malme-3M it was 0.157 µM (active); with NCI-H23 it was 0.251 µM (active); in the test with NCI-H460 it was 0.192 µM (active); in the test on NCI-H522 it was 0.124 µM (active). The GI50 is 0.201 µM (active) in the test with OVCAR-4; 0.261 µM (active) in the test on PC-3; 0.31 µM (active) in the test with RXF 393; 0.139 µM (active) with SF-268; 0.212 µM (active) with SK-MEL-2; 0.323 µM (active) with SNB-19. In addition, the GI50 was 0.179 µM (active) in the test on SR and 0.239 µM (active) in the test on UO-31.
